According to patent US12558428B2, “Heterobifunctional compounds and their use in treating disease” (Halda Therapeutics OpCo, Inc., priority 2024, dated 2026):
Like-named read-outs stand apart in the source and are kept apart here.

What was measured:
Assay type in all cases: cell-based
[1] = tested on: T-Rex 293 cells lacking increased expression of estrogen receptor alpha protein; assay: Cellular growth inhibition assay, T-Rex 293 cells, (−) doxycycline; settings: Table 7-A, T-Rex 293 cells without doxycycline (lacking increased ERα expression), 72 hours, CellTiter-Glo, read-out: (−) Dox GI50
Summary of the method: (§1)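 Viability read-out was CellTiter-Glo 2.0 luminescence after 72 h compound exposure, normalized to zero luminescence and fitted by four-parameter regression to give GI50. Cells were an ERα-inducible T-Rex 293 clone cultured with or without 3 ng/mL doxycycline in charcoal-stripped, phenol red-free medium.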

[2] = tested on: T-Rex 293 cells having increased expression of estrogen receptor alpha protein; assay: Cellular growth inhibition assay, T-Rex 293 cells, (+) doxycycline; settings: Table 7-A, T-Rex 293 cells with doxycycline (increased ERα expression), 72 hours, CellTiter-Glo, read-out: (+) Dox GI50
Summary of the method: as §1

[3] = tested on: MCF7 cells (ATCC #HTB-22); assay: Cellular growth inhibition assay, MCF7 cells purchased from ATCC; settings: Table 8-A, MCF7 cells purchased from ATCC, six days, CellTiter-Glo, read-out: GI50
Summary of the method: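 MCF7 cells in RPMI 1640 with 10% FBS and 0.2 U/ml insulin, seeded at 1,500 cells/well (ATCC) or 225 cells/well (ECACC). Compounds added 24 h later, then 6 days at 37° C. Viability by CellTiter-Glo 2.0 luminescence. GI50 from four-parameter fit.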

Row | SMILES | GI50 ([3]; Homo sapiens, MCF7, 144 h) | GI50 [3] | GI50 ([1]; T-REx-293, 72 h) | GI50 ([2]; T-REx-293, 72 h) | GI50 [1] | GI50 [2]
1 | Cc1sc2c(c1C)C(c1ccc(N3CCC4(CCN(CCOc5ccc([C@@H]6c7ccc(O)cc7CC[C@@H]6c6ccccc6)cc5)CC4)CC3)cc1)=NC(Cc1ncco1)c1nnc(C)n1-2 (stereo partly drawn) [III-38] | < 0.05 µM | – | 0.05 to 0.5 µM | < 0.05 µM | – | –
2 | Cc1sc2c(c1C)C(c1ccc(NC[C@@H]3CN(CCOc4ccc([C@@H]5c6ccc(O)cc6CC[C@@H]5c5ccccc5)cc4)CCO3)cc1)=NC(Cc1ncco1)c1nnc(C)n1-2 (stereo partly drawn) [III-39] | < 0.05 µM | – | 0.05 to 0.5 µM | < 0.05 µM | – | –
3 | Cc1sc2c(c1C)C(c1ccc(N3C[C@H]4C[C@@H]3CN4CCOc3ccc([C@@H]4c5ccc(O)cc5CC[C@@H]4c4ccccc4)cc3)cc1)=NC(Cc1ncco1)c1nnc(C)n1-2 (stereo partly drawn) [III-40] | < 0.05 µM | – | 0.05 to 0.5 µM | 0.05 to 0.5 µM | – | –
4 | Cc1sc2c(c1C)C(c1ccc(N3CCCN(CCCNCCOc4ccc([C@@H]5c6ccc(O)cc6CC[C@@H]5c5ccccc5)cc4)CC3)cc1)=NC(Cc1ncco1)c1nnc(C)n1-2 (stereo partly drawn) [III-42] | 0.05 to 0.5 µM | – | 0.05 to 0.5 µM | < 0.05 µM | – | –
5 | Cc1sc2c(c1C)C(c1ccc(N[C@H]3CC[C@H](CNCCOc4ccc([C@@H]5c6ccc(O)cc6CC[C@@H]5c5ccccc5)cc4)CC3)cc1)=NC(Cc1ncco1)c1nnc(C)n1-2 (stereo partly drawn) [III-43] | 0.05 to 0.5 µM | – | 0.05 to 0.5 µM | < 0.05 µM | – | –
6 | Cc1sc2c(c1C)C(c1ccc(N3CCCC(CN(C)CCOc4ccc([C@@H]5c6ccc(O)cc6CC[C@@H]5c5ccccc5)cc4)C3)cc1)=NC(Cc1ncco1)c1nnc(C)n1-2 (stereo partly drawn) [III-44] | 0.05 to 0.5 µM | – | 0.5 to 2.5 µM | 0.05 to 0.5 µM | – | –
7 | Cc1sc2c(c1C)C(c1ccc(NCCC3CCCN(CCOc4ccc([C@@H]5c6ccc(O)cc6CC[C@@H]5c5ccccc5)cc4)C3)cc1)=NC(Cc1ncco1)c1nnc(C)n1-2 (stereo partly drawn) [III-45] | 0.05 to 0.5 µM | – | 0.05 to 0.5 µM | < 0.05 µM | – | –
8 | Cc1sc2c(c1C)C(c1ccc(N[C@H]3CCN(CCOc4ccc([C@@H]5c6ccc(O)cc6CC[C@@H]5c5ccccc5)cc4)C[C@@H]3F)cc1)=NC(Cc1ncco1)c1nnc(C)n1-2 (stereo partly drawn) [III-46] | < 0.05 µM | – | < 0.05 µM | < 0.05 µM | – | –
9 | Cc1sc2c(c1C)C(c1ccc(N[C@H]3CCCCN(CCOc4ccc([C@@H]5c6ccc(O)cc6CC[C@@H]5c5ccccc5)cc4)C3)cc1)=NC(Cc1ncco1)c1nnc(C)n1-2 (stereo partly drawn) [III-47] | 0.05 to 0.5 µM | – | 0.05 to 0.5 µM | 0.05 to 0.5 µM | – | –
10 | Cc1sc2c(c1C)C(c1ccc(NCCCC3CCN(CCOc4ccc([C@@H]5c6ccc(O)cc6CC[C@@H]5c5ccccc5)cc4)CC3)cc1)=NC(Cc1ncco1)c1nnc(C)n1-2 (stereo partly drawn) [III-48] | < 0.05 µM | – | 0.05 to 0.5 µM | < 0.05 µM | – | –
11 | Cc1sc2c(c1C)C(c1ccc(NC[C@H]3CC[C@H](CNCCOc4ccc([C@@H]5c6ccc(O)cc6CC[C@@H]5c5ccccc5)cc4)CC3)cc1)=NC(Cc1ncco1)c1nnc(C)n1-2 (stereo partly drawn) [III-49] | < 0.05 µM | – | 0.05 to 0.5 µM | < 0.05 µM | – | –
12 | Cc1sc2c(c1C)C(c1ccc(N3CCN(C4CCN(CCOc5ccc([C@@H]6c7ccc(O)cc7CC[C@@H]6c6ccccc6)cc5)C4)CC3)cc1)=NC(Cc1ncco1)c1nnc(C)n1-2 (stereo partly drawn) [III-50] | < 0.05 µM | – | 0.05 to 0.5 µM | < 0.05 µM | – | –
13 | Cc1sc2c(c1C)C(c1ccc(NCC3CC4(C3)CN(CCOc3ccc([C@@H]5c6ccc(O)cc6CC[C@@H]5c5ccccc5)cc3)C4)cc1)=NC(Cc1ncco1)c1nnc(C)n1-2 (stereo partly drawn) [III-51] | < 0.05 µM | – | 0.05 to 0.5 µM | < 0.05 µM | – | –
14 | Cc1sc2c(c1C)C(c1ccc(N[C@H]3CC[C@@H](NCCOc4ccc([C@@H]5c6ccc(O)cc6CC[C@@H]5c5ccccc5)cc4)CC3)cc1)=NC(Cc1ncco1)c1nnc(C)n1-2 (stereo partly drawn) [III-52] | 0.05 to 0.5 µM | – | 0.05 to 0.5 µM | 0.05 to 0.5 µM | – | –
15 | Cc1sc2c(c1C)C(c1ccc(N[C@H]3C[C@H]4CC[C@@H](C3)N4CCOc3ccc([C@@H]4c5ccc(O)cc5CC[C@@H]4c4ccccc4)cc3)cc1)=NC(Cc1ncco1)c1nnc(C)n1-2 (stereo partly drawn) [III-59] | 0.05 to 0.5 µM | – | 0.05 to 0.5 µM | < 0.05 µM | – | –
16 | Cc1sc2c(c1C)C(c1ccc(N[C@@H]3C[C@H]4CCC[C@@H](C3)N4CCOc3ccc([C@@H]4c5ccc(O)cc5CC[C@@H]4c4ccccc4)cc3)cc1)=NC(Cc1ncco1)c1nnc(C)n1-2 (stereo partly drawn) [III-64] | 0.05 to 0.5 µM | – | 0.05 to 0.5 µM | 0.05 to 0.5 µM | – | –

The next lines start with results.

Row | GI50 ([3]; Homo sapiens, MCF7, 144 h) | GI50 [3] | SMILES | GI50 ([1]; T-REx-293, 72 h) | GI50 ([2]; T-REx-293, 72 h) | GI50 [1] | GI50 [2]
17 | 0.05 to 0.5 µM | – | Cc1sc2c(c1C)C(c1ccc(NCC3CCCN(CCOc4ccc([C@@H]5c6ccc(O)cc6CC[C@@H]5c5ccccc5)cc4)C3)cc1)=NC(Cc1ncco1)c1nnc(C)n1-2 (stereo partly drawn) [III-53] | 0.05 to 0.5 µM | 0.05 to 0.5 µM | – | –
18 | 0.05 to 0.5 µM | – | Cc1sc2c(c1C)C(c1ccc(N3CCC[C@@H](CNCCOc4ccc([C@@H]5c6ccc(O)cc6CC[C@@H]5c5ccccc5)cc4)C3)cc1)=NC(Cc1ncco1)c1nnc(C)n1-2 (stereo partly drawn) [III-54] | 0.05 to 0.5 µM | 0.05 to 0.5 µM | – | –
19 | 0.05 to 0.5 µM | – | Cc1sc2c(c1C)C(c1ccc(N3CCCC4(CCN(CCOc5ccc([C@@H]6c7ccc(O)cc7CC[C@@H]6c6ccccc6)cc5)CC4)C3)cc1)=NC(Cc1ncco1)c1nnc(C)n1-2 (stereo partly drawn) [III-55] | 0.5 to 2.5 µM | 0.05 to 0.5 µM | – | –
20 | 0.05 to 0.5 µM | – | Cc1sc2c(c1C)C(c1ccc(NCC3CCCCN3CCOc3ccc([C@@H]4c5ccc(O)cc5CC[C@@H]4c4ccccc4)cc3)cc1)=NC(Cc1ncco1)c1nnc(C)n1-2 (stereo partly drawn) [III-56] | 0.05 to 0.5 µM | 0.05 to 0.5 µM | – | –
21 | 0.05 to 0.5 µM | – | Cc1sc2c(c1C)C(c1ccc(NCC3CCN(CCOc4ccc([C@@H]5c6ccc(O)cc6CC[C@@H]5c5ccccc5)cc4)C3)cc1)=NC(Cc1ncco1)c1nnc(C)n1-2 (stereo partly drawn) [III-57] | 0.05 to 0.5 µM | 0.05 to 0.5 µM | – | –
22 | 0.05 to 0.5 µM | – | Cc1sc2c(c1C)C(c1ccc(N[C@H]3CC[C@H](NCCOc4ccc([C@@H]5c6ccc(O)cc6CC[C@@H]5c5ccccc5)cc4)CC3)cc1)=NC(Cc1ncco1)c1nnc(C)n1-2 (stereo partly drawn) [III-58] | 0.05 to 0.5 µM | < 0.05 µM | – | –
23 | 0.05 to 0.5 µM | – | Cc1sc2c(c1C)C(c1ccc(N3CCOC4(CCN(CCOc5ccc([C@@H]6c7ccc(O)cc7CC[C@@H]6c6ccccc6)cc5)CC4)C3)cc1)=CC(Cc1ncco1)c1nnc(C)n1-2 (stereo partly drawn) [III-60] | 0.05 to 0.5 µM | 0.05 to 0.5 µM | – | –
24 | < 0.05 µM | – | Cc1sc2c(c1C)C(c1ccc(N3CC[C@@H](CNCCOc4ccc([C@@H]5c6ccc(O)cc6CC[C@@H]5c5ccccc5)cc4)C3)cc1)=NC(Cc1ncco1)c1nnc(C)n1-2 (stereo partly drawn) [III-61] | 0.05 to 0.5 µM | < 0.05 µM | – | –
25 | 0.05 to 0.5 µM | – | Cc1sc2c(c1C)C(c1ccc(N3CCC(C)(CNCCOc4ccc([C@@H]5c6ccc(O)cc6CC[C@@H]5c5ccccc5)cc4)CC3)cc1)=NC(Cc1ncco1)c1nnc(C)n1-2 (stereo partly drawn) [III-62] | 0.05 to 0.5 µM | < 0.05 µM | – | –
26 | 0.05 to 0.5 µM | – | Cc1sc2c(c1C)C(c1ccc(N3CCN(C4CCN(CCOc5ccc([C@@H]6c7ccc(O)cc7CC[C@@H]6c6ccccc6)cc5)CC4)CC3)cc1)=NC(Cc1ncco1)c1nnc(C)n1-2 (stereo partly drawn) [III-63] | 0.05 to 0.5 µM | < 0.05 µM | – | –
27 | 0.05 to 0.5 µM | – | Cc1sc2c(c1C)C(c1ccc(N3CCC4(CC3)CC(NCCOc3ccc([C@@H]5c6ccc(O)cc6CC[C@@H]5c5ccccc5)cc3)C4)cc1)=NC(Cc1ncco1)c1nnc(C)n1-2 (stereo partly drawn) [III-65] | 0.05 to 0.5 µM | < 0.05 µM | – | –
28 | 0.05 to 0.5 µM | – | Cc1sc2c(c1C)C(c1ccc(N3CCO[C@@H](CNCCOc4ccc([C@@H]5c6ccc(O)cc6CC[C@@H]5c5ccccc5)cc4)C3)cc1)=NC(Cc1ncco1)c1nnc(C)n1-2 (stereo partly drawn) [III-66] | 0.05 to 0.5 µM | 0.05 to 0.5 µM | – | –
29 | < 0.05 µM | – | Cc1sc2c(c1C)C(c1ccc(N3CCN(CC4CN(c5ccc([C@@H]6c7ccc(O)cc7CC[C@@H]6c6ccccc6)cc5)C4)CC3)cc1)=N[C@@H](C)c1nnc(C)n1-2 [III-67] | < 0.05 µM | < 0.05 µM | – | –
30 | 0.05 to 0.5 µM | – | Cc1sc2c(c1C)C(c1ccc(N3CCN(CC4CN(c5ccc([C@H]6c7ccc(O)cc7CC[C@H]6c6ccccc6)cc5)C4)CC3)cc1)=N[C@@H](C)c1nnc(C)n1-2 [III-68] | 0.5 to 2.5 µM | 0.05 to 0.5 µM | – | –
31 | 0.05 to 0.5 µM | – | Cc1sc2c(c1C)C(c1ccc(OCC3CN(CC4CCN(c5ccc([C@H]6c7ccc(O)cc7CC[C@H]6c6ccccc6)cc5)CC4)C3)cc1)=N[C@@H](C)c1nnc(C)n1-2 [III-69] | 0.05 to 0.5 µM | 0.05 to 0.5 µM | – | –
32 | < 0.05 µM | – | Cc1sc2c(c1C)C(c1ccc(OCC3CN(CC4CCN(c5ccc([C@@H]6c7ccc(O)cc7CC[C@@H]6c6ccccc6)cc5)CC4)C3)cc1)=N[C@@H](C)c1nnc(C)n1-2 [III-70] | 0.05 to 0.5 µM | < 0.05 µM | – | –
33 | – | > 2.5 µM | Cc1sc2c(c1C)C(c1ccc(N3CCC(CN4CCN(c5ccc([C@H]6c7ccc(O)cc7CC[C@H]6c6ccccc6)cc5)CC4)CC3)cc1)=N[C@H](Cc1ncco1)c1nnc(C)n1-2 [III-71] | – | – | > 2.5 µM | > 2.5 µM
34 | – | 0.5 to 2.5 µM | Cc1sc2c(c1C)C(c1ccc(N3CCC(CN4CCN(c5ccc([C@H]6c7ccc(O)cc7CC[C@H]6c6ccccc6)cc5)CC4)CC3)cc1)=N[C@H](Cc1ncco1)c1nnc(C)n1-2 [III-72] | – | – | 0.5 to 2.5 µM | 0.5 to 2.5 µM
